Where two headings read alike, the source gives them in different places.
What was measured:
Assay type in all cases: cell-based
[1] = target: T1, CXCR1 (Homo sapiens, UniProt P25024); assay: Figure S2a opioid peptide screen on chemokine receptors; parameters: dose or concentration left out as unconfirmed
T1 construct: expressed in transfected cells
T1 sequence (P25024 1-350): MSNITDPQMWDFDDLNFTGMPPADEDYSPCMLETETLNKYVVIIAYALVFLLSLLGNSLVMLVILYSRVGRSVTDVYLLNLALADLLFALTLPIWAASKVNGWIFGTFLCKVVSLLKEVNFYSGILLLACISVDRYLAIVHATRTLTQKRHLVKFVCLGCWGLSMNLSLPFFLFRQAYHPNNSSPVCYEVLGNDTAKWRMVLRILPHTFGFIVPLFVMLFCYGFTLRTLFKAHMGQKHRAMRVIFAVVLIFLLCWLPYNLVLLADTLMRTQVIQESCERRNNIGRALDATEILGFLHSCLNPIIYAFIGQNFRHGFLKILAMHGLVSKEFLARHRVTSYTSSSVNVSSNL

[2] = target: T2, CXCR2 (Homo sapiens, UniProt P25025); assay: as above; parameters: dose or concentration left out as unconfirmed
T2 construct: expressed in transfected cells
T2 sequence (P25025 1-360): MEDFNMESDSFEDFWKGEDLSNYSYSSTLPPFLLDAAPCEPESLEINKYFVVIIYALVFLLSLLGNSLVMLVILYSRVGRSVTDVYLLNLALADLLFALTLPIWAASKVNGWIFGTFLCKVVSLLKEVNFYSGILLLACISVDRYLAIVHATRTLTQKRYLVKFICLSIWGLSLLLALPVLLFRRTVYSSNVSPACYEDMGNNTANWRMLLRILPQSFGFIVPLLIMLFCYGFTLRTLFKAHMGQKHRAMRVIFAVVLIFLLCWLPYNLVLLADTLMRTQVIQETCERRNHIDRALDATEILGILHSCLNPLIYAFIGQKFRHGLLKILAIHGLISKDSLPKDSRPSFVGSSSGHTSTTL

[3] = target: T3, CCR9 (Homo sapiens, UniProt P51686); assay: as above; parameters: dose or concentration left out as unconfirmed
T3 construct: expressed in transfected cells
T3 sequence (P51686 1-369): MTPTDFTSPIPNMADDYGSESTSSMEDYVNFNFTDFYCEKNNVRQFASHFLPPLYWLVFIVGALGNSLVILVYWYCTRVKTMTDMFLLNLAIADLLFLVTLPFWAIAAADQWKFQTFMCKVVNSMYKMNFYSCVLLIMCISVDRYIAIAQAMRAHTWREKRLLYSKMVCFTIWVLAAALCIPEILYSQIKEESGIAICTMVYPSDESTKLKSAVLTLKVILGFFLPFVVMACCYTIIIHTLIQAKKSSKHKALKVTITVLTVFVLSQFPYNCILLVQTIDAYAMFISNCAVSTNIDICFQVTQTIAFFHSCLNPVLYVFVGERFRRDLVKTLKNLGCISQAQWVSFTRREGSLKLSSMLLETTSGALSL

[4] = target: KOR (Homo sapiens, UniProt P41145); assay: Figure 6h, KOR, DMSO vs Bafilomycin treatment; parameters: expressed in transfected cells; host or cells: U87 (human glioblastoma); conditions: n = 3 or 4 as in cell
Chain of KOR (P41145 whole entry): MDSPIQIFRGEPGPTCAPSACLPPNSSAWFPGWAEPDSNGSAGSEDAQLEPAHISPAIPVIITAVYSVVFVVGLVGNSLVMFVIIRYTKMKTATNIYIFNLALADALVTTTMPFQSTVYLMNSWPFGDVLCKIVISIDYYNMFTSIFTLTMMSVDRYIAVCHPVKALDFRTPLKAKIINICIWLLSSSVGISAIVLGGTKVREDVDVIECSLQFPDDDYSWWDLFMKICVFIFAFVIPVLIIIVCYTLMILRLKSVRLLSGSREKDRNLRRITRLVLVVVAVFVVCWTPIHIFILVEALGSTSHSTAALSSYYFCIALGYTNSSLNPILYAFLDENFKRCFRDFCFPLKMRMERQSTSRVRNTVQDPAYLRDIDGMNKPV

[5] = target: T4, CCR10 (Homo sapiens, UniProt P46092); assay: Figure S2a opioid peptide screen on chemokine receptors; parameters: dose or concentration left out as unconfirmed
T4 construct: expressed in transfected cells
T4 sequence (P46092 1-362): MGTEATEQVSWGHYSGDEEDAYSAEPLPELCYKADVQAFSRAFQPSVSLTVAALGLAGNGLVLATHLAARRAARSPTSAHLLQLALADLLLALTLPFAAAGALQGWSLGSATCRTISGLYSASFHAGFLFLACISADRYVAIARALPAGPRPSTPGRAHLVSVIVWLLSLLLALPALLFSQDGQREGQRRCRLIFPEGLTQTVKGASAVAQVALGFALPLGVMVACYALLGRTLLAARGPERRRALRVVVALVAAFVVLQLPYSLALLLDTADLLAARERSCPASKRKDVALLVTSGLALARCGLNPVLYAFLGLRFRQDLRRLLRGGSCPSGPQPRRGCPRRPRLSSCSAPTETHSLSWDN

[6] = target: T5, ACKR (Homo sapiens, UniProt P25106); assay: Figure 6h, ACKR, DMSO vs Bafilomycin treatment; conditions: n = 3 or 4 as in cell
T5 construct: expressed in transfected cells; host or cells: U87 cells (human glioblastoma)
T5 sequence (P25106 whole entry): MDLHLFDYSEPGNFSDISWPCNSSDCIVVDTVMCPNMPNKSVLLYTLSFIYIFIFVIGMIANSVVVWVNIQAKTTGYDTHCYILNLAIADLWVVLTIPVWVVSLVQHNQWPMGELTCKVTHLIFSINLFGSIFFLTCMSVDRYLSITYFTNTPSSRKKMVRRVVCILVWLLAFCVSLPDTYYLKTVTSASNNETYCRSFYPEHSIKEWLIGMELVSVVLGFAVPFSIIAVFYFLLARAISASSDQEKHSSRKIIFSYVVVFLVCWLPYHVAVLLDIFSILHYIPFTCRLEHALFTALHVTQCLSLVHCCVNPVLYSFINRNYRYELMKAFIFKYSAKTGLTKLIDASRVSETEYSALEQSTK

[7] = target: T6, CCR4 (Homo sapiens, UniProt P51679); assay: Figure S2a opioid peptide screen on chemokine receptors; parameters: dose or concentration left out as unconfirmed
T6 construct: expressed in transfected cells
T6 sequence (P51679 1-360): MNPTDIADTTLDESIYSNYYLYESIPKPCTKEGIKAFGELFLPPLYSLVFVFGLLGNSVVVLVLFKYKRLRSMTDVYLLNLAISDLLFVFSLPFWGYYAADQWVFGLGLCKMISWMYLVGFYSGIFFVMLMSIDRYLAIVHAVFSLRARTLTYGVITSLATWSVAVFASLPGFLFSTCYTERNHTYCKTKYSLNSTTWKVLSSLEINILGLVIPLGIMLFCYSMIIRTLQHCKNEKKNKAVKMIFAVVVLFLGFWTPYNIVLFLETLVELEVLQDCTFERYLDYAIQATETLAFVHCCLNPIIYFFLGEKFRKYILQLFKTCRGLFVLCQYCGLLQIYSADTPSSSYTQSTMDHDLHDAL

[8] = replicate 1, read-out: CXCR1 activity, ctrl+ = 100
[9] = replicate 2, read-out: CXCR1 activity, ctrl+ = 100
[10] = replicate 1, read-out: CXCR2 activity, ctrl+ = 100
[11] = replicate 2, read-out: CXCR2 activity, ctrl+ = 100
[12] = replicate 1, read-out: CCR9 activity, ctrl+ = 100
[13] = replicate 2, read-out: CCR9 activity, ctrl+ = 100
[14] = 'DMSO vs Bafilomycin treatment'
[15] = first of two columns under 'DMSO vs Bafilomycin treatment' (presumably DMSO)
[16] = replicate 1, read-out: CCR10 activity, ctrl+ = 100
[17] = replicate 2, read-out: CCR10 activity, ctrl+ = 100
[18] = replicate 1, read-out: CCR4 activity, ctrl+ = 100
[19] = replicate 2, read-out: CCR4 activity, ctrl+ = 100

| SMILES | activation [1, 8] | activation [1, 9] | activation ([1]; replicate 3, read-out: CXCR1 activity, ctrl+ = 100) | activation [2, 10] | activation [2, 11] | activation ([2]; replicate 3, read-out: CXCR2 activity, ctrl+ = 100) | activation [3, 12] | activation [3, 13] | activation ([3]; replicate 3, read-out: CCR9 activity, ctrl+ = 100) | Mean ± SEM (Figure 6h, KOR) [4, 14] | Mean ± SEM (Figure 6h, KOR) [4, 15] | activation [5, 16] | activation [5, 17] | activation ([5]; replicate 3, read-out: CCR10 activity, ctrl+ = 100) | Mean ± SEM (Figure 6h, ACKR) [6, 14] | Mean ± SEM (Figure 6h, ACKR) [6, 15] | activation [7, 18] | activation [7, 19] | activation ([7]; replicate 3, read-out: CCR4 activity, ctrl+ = 100) |
| --- | --- | --- | --- | --- | --- | --- | --- | --- | --- | --- | --- | --- | --- | --- | --- | --- | --- | --- | --- |
| CC(C)C[C@H](NC(=O)[C@H](Cc1ccccc1)NC(=O)CNC(=O)CNC(=O)[C@@H](N)Cc1ccc(O)cc1)C(=O)N[C@@H](CCCN=C(N)N)C(=O)N[C@@H](CCCN=C(N)N)C(=O)N[C@@H](CCC(N)=O)C(=O)N[C@@H](Cc1ccccc1)C(=O)N[C@@H](CCCCN)C(=O)N[C@H](C(=O)N[C@H](C(=O)N[C@H](C(=O)O)[C@@H](C)O)C(C)C)C(C)C [Dynorphin B] | -0.474% | -0.947% | 0.71% | 0.415% | -10% | 5.58% | -1.23% | -1.3% | 15.7% | 30,69 ± 2,71, n=3 | 28,51 ± 2,354, n=3 | -1.41% | -7.38% | 5.94% | 90,67 ± 2,557, n=3 | 114,2 ± 9,487, n=3 | -1.26% | -2.57% | 5.93% |
| CC[C@H](C)[C@H](NC(=O)[C@H](CCCNC(=N)N)NC(=O)[C@H](CCCNC(=N)N)NC(=O)[C@H](CC(C)C)NC(=O)[C@H](Cc1ccccc1)NC(=O)CNC(=O)CN)C(=O)N[C@@H](CCCNC(=N)N)C(=O)N1CCC[C@H]1C(=O)N[C@@H](CCCCN)C(=O)N[C@@H](CC(C)C)C(=O)N[C@@H](CCCCN)C(=O)N[C@@H](Cc1c[nH]c2ccccc12)C(=O)N[C@@H](CC(=O)O)C(=O)N[C@@H](CC(N)=O)C(=O)N[C@@H](CCC(N)=O)C(=O)O [Dynorphin 2-17] | 0.572% | 0.136% |  | -7.18% | -15.9% |  | 1.95% | 0.179% |  |  |  | 0.214% | -5.55% |  |  |  | -4.06% | -1.12% |  |
